Reference: article PMC3179844 (Chemmedchem, 2011)
Marks after values point to notes of the source that are not given here.

Key:
human 11β-HSD1 = human 11β-HSD1 (Homo sapiens, UniProt P28845); assay: Cellular 11β-HSD1 inhibition assay; details: for inhibition at 1 µM: HEK293, read-out: Percent inhibition measured at 1 μM
mouse 11β-HSD1 = mouse 11β-HSD1 (Mus musculus, UniProt P50172); assay: Cellular 11β-HSD1 inhibition, mouse enzyme; type: cell-based; details: mean of three measurements
[1] = Metabolism studies in human liver microsomes; type: in vitro ADME; details: for half-life: human liver microsomes, 37 °C, NADPH, 40 min, mean of two measurements
[2] = ratio of IC50 values, human 11β-HSD1

Sequence of human 11β-HSD1 (P28845 whole entry): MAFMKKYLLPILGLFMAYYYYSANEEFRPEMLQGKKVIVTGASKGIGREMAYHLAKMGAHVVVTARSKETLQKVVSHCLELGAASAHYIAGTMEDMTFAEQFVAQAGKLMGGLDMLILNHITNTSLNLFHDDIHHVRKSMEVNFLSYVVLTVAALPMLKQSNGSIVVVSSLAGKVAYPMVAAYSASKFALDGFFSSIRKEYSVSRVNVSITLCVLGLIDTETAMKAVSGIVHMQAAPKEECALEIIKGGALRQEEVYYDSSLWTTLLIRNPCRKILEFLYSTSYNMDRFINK
Sequence of mouse 11β-HSD1 (P50172 whole entry): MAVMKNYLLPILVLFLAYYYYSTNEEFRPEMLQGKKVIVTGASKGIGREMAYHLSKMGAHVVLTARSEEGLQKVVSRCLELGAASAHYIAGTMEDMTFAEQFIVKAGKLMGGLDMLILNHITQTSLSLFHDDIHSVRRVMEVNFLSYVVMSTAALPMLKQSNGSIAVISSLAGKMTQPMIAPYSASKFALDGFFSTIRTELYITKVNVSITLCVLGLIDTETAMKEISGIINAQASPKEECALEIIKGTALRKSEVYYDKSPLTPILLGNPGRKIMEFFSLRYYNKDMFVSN

melting point	Compound	further results
	ON=C(COCc1ccccn1)C12CC3CC(CC(C3)C1)C2 [Compound 35, N-[1-(Adamantan-1-yl)-2-(pyridin-2-ylmethoxy)ethylidene]hydroxylamine]	inhibition at 1 μM (in words) (human 11β-HSD1; 1 μM, HEK293/HSD11B1 cells): none of the oxime compound shows any significant inhibition
102 to 104 °C	O=C(COc1ccc(C(F)(F)F)cn1)C12CC3CC(CC(C3)C1)C2 [Compound 8, 1-(Adamantan-1-yl)-2-{[5-(trifluoromethyl)pyridin-2-yl]oxy}ethan-1-one]	
88 to 90 °C	O=C(CSCc1ccc(Cl)nc1)C12CC3CC(CC(C3)C1)C2 [Compound 49, 1-(Adamantan-1-yl)-2-{[(6-chloropyridin-3-yl)methyl]sulfanyl}ethan-1-one]	inhibition at 1 µM (human 11β-HSD1): 31%
151 to 152 °C	Cc1cccc(S(=O)(=O)CC(=O)C23CC4CC(CC(C4)C2)C3)n1 [Compound 20, 1-(Adamantan-1-yl)-2-(6-methylpyridine-2-sulfonyl)ethan-1-one]	
90 to 93 °C	O=C(COc1cccc(Cl)n1)C12CC3CC(CC(C3)C1)C2 [Compound 7, 1-(Adamantan-1-yl)-2-[(6-chloropyridin-2-yl)oxy]ethan-1-one]	
63 to 65 °C	CN(C)C(=O)c1ccc(SCC(=O)C23CC4CC(CC(C4)C2)C3)nc1 [Compound 27, 6-{[2-(Adamantan-1-yl)-2-oxoethyl]sulfanyl}-N,N-dimethylpyridine-3-carboxamide]	
85 to 87 °C	Cc1cccc(OCC(=O)C23CC4CC(CC(C4)C2)C3)n1 [Compound 6, 1-(Adamantan-1-yl)-2-[(6-methylpyridin-2-yl)oxy]ethan-1-one]	IC50 (human 11β-HSD1; IC50, human 11β-HSD1, HEK293/HSD11B1 cells): 3100 nM
75 to 76 °C	Cc1cccc([S+]([O-])CC(=O)C23CC4CC(CC(C4)C2)C3)n1 (stereo not drawn) [Compound 17, 1-(Adamantan-1-yl)-2-(6-methylpyridine-2-sulfinyl)ethan-1-one]	IC50 (mouse 11β-HSD1): 68 nM
	6-{[2-(Adamantan-1-yl)-2-oxoethyl]sulfanyl}-N-methylpyridine-3-carboxamide [Compound 25]	Percent inhibition measured at 1 μM (human 11β-HSD1; 1 μM, HEK293/HSD11B1 cells, mean of two measurements): 73 % ^[b]
38 to 39 °C	O=C(CSCc1ccccn1)C12CC3CC(CC(C3)C1)C2 [Compound 37, 1-(Adamantan-1-yl)-2-[(pyridin-2-ylmethyl)sulfanyl]ethan-1-one]	
80 to 82 °C	O=C(CSCc1ccc(C(F)(F)F)nc1)C12CC3CC(CC(C3)C1)C2 [Compound 48, 1-(Adamantan-1-yl)-2-({[6-(trifluoromethyl)pyridin-3-yl]methyl}sulfanyl)ethan-1-one]	inhibition at 1 µM (human 11β-HSD1): 20%
135 to 136 °C	O=C(NCC(=O)C12CC3CC(CC(C3)C1)C2)c1ccccn1 [Compound 56, N-[2-(Adamantan-1-yl)-2-oxoethyl]pyridine-2-carboxamide]	
115 to 117 °C	ON=C(COCc1cccnc1)C12CC3CC(CC(C3)C1)C2 [Compound 36, N-[1-(Adamantan-1-yl)-2-(pyridin-3-ylmethoxy)ethylidene]hydroxylamine]	inhibition at 1 μM (in words) (human 11β-HSD1; 1 μM, HEK293/HSD11B1 cells): none of the oxime compound shows any significant inhibition
87 to 89 °C	O=C(CS(=O)(=O)Cc1ccc(C(F)(F)F)nc1)C12CC3CC(CC(C3)C1)C2 [Compound 52, 1-(Adamantan-1-yl)-2-({[6-(trifluoromethyl)pyridin-3-yl]methyl}sulfonyl)ethan-1-one]	inhibition at 1 µM (human 11β-HSD1): 54%
114 to 115 °C	O=C(NCC(=O)C12CC3CC(CC(C3)C1)C2)c1cccnc1 [Compound 58, N-[2-(Adamantan-1-yl)-2-oxoethyl]pyridine-3-carboxamide]	
45 to 47 °C	O=C(CSCc1cccnc1)C12CC3CC(CC(C3)C1)C2 [Compound 38, 1-(Adamantan-1-yl)-2-[(pyridin-3-ylmethyl)sulfanyl]ethan-1-one]	
172 to 174 °C	NC(=O)c1ccc(SCC(=O)C23CC4CC(CC(C4)C2)C3)nc1 [Compound 24, 6-{[2-(Adamantan-1-yl)-2-oxoethyl]sulfanyl}pyridine-3-carboxamide]	
147 to 149 °C	O=C(NCC(=O)C12CC3CC(CC(C3)C1)C2)c1ccncc1 [Compound 59, N-[2-(Adamantan-1-yl)-2-oxoethyl]pyridine-4-carboxamide]	

melting point	Compound	further results
66 to 68 °C	O=C(C[S+]([O-])c1ccccn1)C12CC3CC(CC(C3)C1)C2 (stereo not drawn) [Compound 16, 1-(Adamantan-1-yl)-2-(pyridine-2-sulfinyl)ethan-1-one]	half-life [1]: 20 min; microsomal CLint ([1]; human, liver microsomes): 31 µL/min/mg; half-life ([1]; human, liver microsomes, Half-life): 20 to 30 min; IC50 (mouse 11β-HSD1): 43 nM
125 to 128 °C	O=C(COc1cccnc1Cl)C12CC3CC(CC(C3)C1)C2 [Compound 10, 1-(Adamantan-1-yl)-2-[(2-chloropyridin-3-yl)oxy]ethan-1-one]	
129 to 131 °C	O=C(CS(=O)(=O)c1ccccn1)C12CC3CC(CC(C3)C1)C2 [Compound 19, 1-(Adamantan-1-yl)-2-(pyridine-2-sulfonyl)ethan-1-one]	
86 to 87 °C	Cc1ccc(OCC(=O)C23CC4CC(CC(C4)C2)C3)cn1 [Compound 11, 1-(Adamantan-1-yl)-2-[(6-methylpyridin-3-yl)oxy]ethan-1-one]	fold improvement in activity compared with the 2-pyridyl analogue 6 (human 11β-HSD1; [2]): 38 fold
116 to 117 °C	Cc1cccc(SCC(=O)C23CC4CC(CC(C4)C2)C3)n1 [Compound 14, 1-(Adamantan-1-yl)-2-[(6-methylpyridin-2-yl)sulfanyl]ethan-1-one]	inhibition at 1 µM (human 11β-HSD1): 70%
110 to 111 °C	Cc1cccc(C(=O)NCC(=O)C23CC4CC(CC(C4)C2)C3)n1 [Compound 57, N-[2-(Adamantan-1-yl)-2-oxoethyl]-6-methylpyridine-2-carboxamide]	
136 to 137 °C	CCNC(=O)c1ccc(SCC(=O)C23CC4CC(CC(C4)C2)C3)nc1 [Compound 26, 6-{[2-(Adamantan-1-yl)-2-oxoethyl]sulfanyl}-N-ethylpyridine-3-carboxamide]	
127 to 128 °C	O=C(COc1cncc(Cl)c1)C12CC3CC(CC(C3)C1)C2 [Compound 9, 1-(Adamantan-1-yl)-2-[(5-chloropyridin-3-yl)oxy]ethan-1-one]	
106 to 109 °C	O=C(COCc1ccc(C(F)(F)F)nc1)C12CC3CC(CC(C3)C1)C2 [Compound 34, 1-(Adamantan-1-yl)-2-{[6-(trifluoromethyl)pyridin-3-yl]methoxy}ethan-1-one]	inhibition at 1 µM (human 11β-HSD1): 33%
141 to 142 °C	O=C(CSc1ccc(C(F)(F)F)cn1)C12CC3CC(CC(C3)C1)C2 [Compound 22, 1-(Adamantan-1-yl)-2-{[5-(trifluoromethyl)pyridin-2-yl]sulfanyl}ethan-1-one]	fold reduction in activity compared with the unsubstituted derivative 13 (human 11β-HSD1; [2]): 51 fold
143 to 144 °C	O=C(CS(=O)(=O)c1ccncc1)C12CC3CC(CC(C3)C1)C2 [Compound 21, 1-(Adamantan-1-yl)-2-(pyridine-4-sulfonyl)ethan-1-one]	
73 to 75 °C	O=C(COc1cccnc1)C12CC3CC(CC(C3)C1)C2 [Compound 12, 1-(Adamantan-1-yl)-2-(pyridin-3-yloxy)ethan-1-one]	IC50 (mouse 11β-HSD1): 160 nM
115 to 117 °C	O=C(Cc1cccnc1)NCC(=O)C12CC3CC(CC(C3)C1)C2 [Compound 61, N-[2-(Adamantan-1-yl)-2-oxoethyl]-2-(pyridin-3-yl)acetamide]	
174 to 176 °C	O=C(O)c1ccc(SCC(=O)C23CC4CC(CC(C4)C2)C3)nc1 [Compound 23, 6-{[2-(Adamantan-1-yl)-2-oxoethyl]sulfanyl}pyridine-3-carboxylic acid]	
137 to 139 °C	O=C(Cc1ccccn1)NCC(=O)C12CC3CC(CC(C3)C1)C2 [Compound 60, N-[2-(Adamantan-1-yl)-2-oxoethyl]-2-(pyridin-2-yl)acetamide]	
87 to 88 °C	O=C(C[S+]([O-])Cc1ccccn1)C12CC3CC(CC(C3)C1)C2 (stereo not drawn) [Compound 40, 1-(Adamantan-1-yl)-2-[(pyridin-2-ylmethyl)sulfinyl]ethan-1-one]	IC50 (mouse 11β-HSD1): 248 nM
114 to 115 °C	O=C(CSc1ccncc1)C12CC3CC(CC(C3)C1)C2 [Compound 15, 1-(Adamantan-1-yl)-2-(pyridin-4-ylsulfanyl)ethan-1-one]	
